Measured values from patent US9527850B2, “Benzyl piperidine compounds as lysophosphatidic acid (LPA) receptor antagonist” (Merck Patent GmbH, priority 2011, dated 2016).

Molecular target: T1, LPA2 receptor (LPA2R) (Homo sapiens, UniProt Q9HBW0)
T1 construct: expressed in transfected cells; host or cells: U2OS
Assay: LPA2R-Calciumflux assay (intracellular calcium mobilisation, FLIPR)
Assay type: cell-based
Conditions: U2OS cells recombinant expressing LPA2R; inhibition of LPA-induced Ca-flux; 10 concentrations 30 uM to 1 nM, 1% DMSO

T1 sequence (Q9HBW0 whole entry): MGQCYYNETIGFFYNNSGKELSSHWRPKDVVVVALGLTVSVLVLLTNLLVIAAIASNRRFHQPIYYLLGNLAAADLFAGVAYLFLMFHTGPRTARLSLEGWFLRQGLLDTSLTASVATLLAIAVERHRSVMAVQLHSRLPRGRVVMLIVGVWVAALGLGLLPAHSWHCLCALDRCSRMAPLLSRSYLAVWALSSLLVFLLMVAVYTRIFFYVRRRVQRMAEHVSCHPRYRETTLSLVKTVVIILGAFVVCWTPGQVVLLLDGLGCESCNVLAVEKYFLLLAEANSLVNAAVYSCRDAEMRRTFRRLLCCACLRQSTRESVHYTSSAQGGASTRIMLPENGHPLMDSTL

Row | IC50 [µM] | SMILES
1 | 5 to 15 | Fc1ccc(CCCN2CCCCC2c2cc3cc(F)ccc3[nH]2)cc1 (stereo not shown) [compound 132, 5-Fluoro-2-{1-[3-(4-fluoro-phenyl)-propyl)-piperidin-2-yl}-1H-indole]
2 | 5 to 15 | Fc1ccc(CN2CCCCC2c2nc3nccnc3[nH]2)cc1 (stereo not shown) [compound 133, 2-[1-(4-Fluoro-benzyl)-piperidin-2-yl]-1H-imidazo[4,5-b]pyrazine]
3 | < 0.5 | Cc1ccc(CN2CCCCC2c2nc3nccnc3[nH]2)cc1C (stereo not shown) [compound 134, 2-[1-(3,4-Dimethyl-benzyl)-piperidin-2-yl]-1H-imidazo[4,5-b]pyrazine]
4 | 5 to 15 | Cc1ccc(CN2CCC3C[C@]32c2nc3cc(F)ccc3[nH]2)cc1C (stereo partly drawn) [compound 135, 2-[(R)-2-(3,4-Dimethyl-benzyl)-2-aza-bicyclo-[3.1.0]hex-1-yl]-5-fluoro-1H-benzo-imidazole]
5 | < 0.5 | Fc1ccc(CN2CCCC[C@@H]2c2cc3cc(F)ccc3[nH]2)cc1 [compound 136, 5-Fluoro-2-[(R)-1-(4-fluoro-benzyl)-piperidin-2-yl]-1H-indole]
6 | 0.5 to 5 | Fc1ccc(CN2CCCC[C@H]2c2cc3cc(F)ccc3[nH]2)cc1 [compound 137, 5-Fluoro-2-[(S)-1-(4-fluoro-benzyl)-piperidin-2-yl]-1H-indole]
7 | < 0.5 | Cc1ccc(CN2CCCC[C@@H]2c2cc3cc(F)ccc3[nH]2)cc1C [compound 138, 2-[(R)-1-(3,4-Dimethyl-benzyl)-piperidin-2-yl]-5-fluoro-1H-indole]
8 | 0.5 to 5 | Cc1ccc(CN2CCCC[C@H]2c2cc3cc(F)ccc3[nH]2)cc1C [compound 139, 2-[(S)-1-(3,4-Dimethyl-benzyl)-piperidin-2-yl]-5-fluoro-1H-indole]
9 | 0.5 to 5 | Cc1ccc(CN2CCCC[C@@H]2c2nc3cc(Cl)cnc3[nH]2)cc1C [compound 140, 6-Chloro-2-[(R)-1-(3,4-dimethyl-benzyl)-piperidin-2-yl]-3H-imidazo[4,5-b]pyridine]
10 | 0.5 to 5 | Cc1ccc(CN2CCCC[C@H]2c2nc3cc(Cl)cnc3[nH]2)cc1C [compound 141, 6-Chloro-2-[(S)-1-(3,4-dimethyl-benzyl)-piperidin-2-yl]-3H-imidazo[4,5-b]pyridine]
11 | < 0.5 | Cc1ccc(CN2CCCC[C@H]2c2nc3cc(F)ccc3[nH]2)cc1C [compound 142, 2-[(S)-1-(3,4-Dimethyl-benzyl)-piperidin-2-yl]-5-fluoro-1H-benzo-imidazole]
12 | < 0.5 | Cc1ccc(CN2CCCC[C@@H]2c2cc3ccccc3[nH]2)cc1 [compound 143, 2-[(R)-1-(4-Methyl-benzyl)-piperidin-2-yl)-1H-indole]
13 | 0.5 to 5 | Fc1ccc(CN2CCCCC2c2cc3cccnc3[nH]2)cc1 (stereo not shown) [compound 144, 2-[1-(4-Fluoro-benzyl)-piperidin-2-yl]-1H-pyrrolo[2,3-b]pyridine]
